IC50 data for three compounds are collected here from patent US20100075942A1, “N-PHENYL-4-PYRIDIN-2-YL-BENZAMIDE DERIVATIVES AS HISTONE DEACYLASE (HDAC) INHIBITORS FOR THE TREATMENT OF CANCER” (ASTRAZENECA AB, priority 2005, published 2010).

One experiment relates to HCT116 cells. Nature of the experiment: In vitro assay of inhibition of proliferation in whole cells, MTS (Test (b)). The class given is cell-based. The note with it: Homo sapiens, HCT-116, 72 hours treatment. How it is done: Inhibition of proliferation in whole cells was assayed using the Promega cell titer 96 aqueous proliferation assay (Promega #G5421). HCT116 cells were seeded in 96 well plates at 1×10^3 cells/well, and allowed to adhere overnight. They were treated with inhibitors for 72 hours. 20 μl of the tetrazolium dye MTS was added to each well and the plates were reincubated for 3 hours. Absorbance was then measured on a 96 well plate reader at […]. The IC50 values for HDAC inhibitors were determined by performing dose response curves with individual compounds and determining the concentration of inhibitor producing fifty percent decrease in maximal signal (diluent control). • (c) In Vitro Enzyme Assay of Histone Deacetylase Activity in Whole Cells

In a further experiment the target is T1, recombinant human HDAC1 (Homo sapiens, UniProt Q13547).
T1 construct: FLAG (C); made in house; host or cells: Hi5 insect cells
T1 sequence (Q13547 whole entry): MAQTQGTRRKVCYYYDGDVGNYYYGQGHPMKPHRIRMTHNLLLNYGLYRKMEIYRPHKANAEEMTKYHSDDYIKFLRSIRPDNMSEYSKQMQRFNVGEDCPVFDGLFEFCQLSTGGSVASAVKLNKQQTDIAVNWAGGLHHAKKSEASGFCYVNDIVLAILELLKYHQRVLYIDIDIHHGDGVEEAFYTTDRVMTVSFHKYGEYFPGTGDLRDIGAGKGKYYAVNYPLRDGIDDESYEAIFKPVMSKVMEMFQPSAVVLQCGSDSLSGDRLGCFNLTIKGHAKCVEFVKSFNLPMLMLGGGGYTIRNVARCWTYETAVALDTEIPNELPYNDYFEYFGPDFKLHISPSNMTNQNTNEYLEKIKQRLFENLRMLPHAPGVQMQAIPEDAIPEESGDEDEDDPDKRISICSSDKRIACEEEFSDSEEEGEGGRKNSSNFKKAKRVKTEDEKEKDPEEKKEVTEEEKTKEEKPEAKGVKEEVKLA
The experiment in a line: In vitro enzyme assay of recombinant HDAC1 (Test (a)). Format: biochemical. Conditions: recombinant human HDAC1 produced in Hi5 insect cells; acetylated histone H4 peptide, Fluor de Lys. How it is done:
HDAC inhibitors were screened against recombinant human HDAC1 produced in Hi5 insect cells. The enzyme was cloned with a FLAG tag at the C-terminal of the gene and affinity purified using Anti-FLAG M2 agarose from SIGMA (A2220).
The deacetylase assays were carried out in a 50 μl reaction. HDAC1 (75 ng of enzyme) diluted in 15 μl of reaction buffer (25 mM TrisHC1 (pH 8), 137 mM NaCl, 2.7 mM KCl, 1 mM MgCl2) was mixed with either buffer alone (10 μl) or buffer containing compound (10 μl for 30 minutes at ambient temperature. 25 μM acetylated histone H4 peptide (KI 174 Biomol) diluted in 25 μl of buffer was then added to the reaction and incubated for one hour at ambient temperature. The reaction was stopped by addition of an equal volume (50 μl) Fluor de Lys developer (Biomol) containing Trichostatin A at 2 μM. The reaction was allowed to develop for 30 minutes at ambient temperature and then fluorescence measured at an excitation wavelength of 360 nm and an emission wavelength of 465 nm. IC50 values for HDAC enzyme inhibitors were determined by performing dose response curves with individual compounds and determining the concentration of inhibitor producing fifty percent decrease in the maximal signal (diluent control). • (b) In Vitro Assay of Inhibition of Proliferation in Whole Cells

With `Nc1ccccc1NC(=O)c1ccc(-c2ncc(C(=O)NCCN3CCCC3)cc2Cl)cc1` [5 (1), N-(2-aminophenyl)-4-[3-chloro-5-(N-2-[pyrrolidin-1-yl]ethyl-carbamoyl)-pyridin-2-yl]benzamide], the IC50 (as a rule, the point on the concentration scale where inhibition reaches its midpoint) is 0.22 µM with HCT116 cells and 0.009 µM at recombinant human HDAC1.

As for `CCCCNCc1cnc(-c2ccc(C(=O)Nc3ccccc3N)cc2)c(Cl)c1` [Example 1, N-(2-Aminophenyl)-4-{5-[(butylamino)methyl]-3-chloropyridin-2-yl}benzamide], the IC50 is 0.16 µM in the experiment with HCT116 cells and 0.009 µM at recombinant human HDAC1.

With `Nc1ccccc1NC(=O)c1ccc(-c2ncc(CNCCN3CCCC3)cc2Cl)cc1` [2 (8), N-(2-aminophenyl)-4-(3-chloro-5-{[(2-pyrrolidin-1-ylethyl)amino]methyl}pyridin-2-yl)benzamide], the half-maximal inhibitory concentration (IC50) in the experiment with HCT116 cells is 0.4 µM; at recombinant human HDAC1, 0.016 µM.
